Experimental data published in patent publication US9944968B2, “Control of protein glycosylation by culture medium supplementation and cell culture process parameters” (Biogen MA Inc., priority 2013, dated 2018).
Read-outs that look alike come from different tables or passages of the source.

Experiments:
BIIB603 cell line = test: BIIB603 shake flask fed-batch with MPA or acMPAG: afucosylation (N-glycan analysis); type: cell-based; details: BIIB603 shake flasks; MPA 20, 40 μM or acMPAG 20 μM dosed day 6; 4 more days at 31 °C; FIG. 18
Description: (§1) FIG. 18. Impact of Mycophenolic acid (MPA) and Mycophenolic acid acyl glucuronide (acMPAG) on afucosylation in BIIB603 cell line. The cells were scaled up to 5 L BR for fed-batch production process. On day 5, temperature was shifted from 37° C. to 31° C. On day 6, cell culture was drained from the bioreactor and divided into several 500 mL shake flasks with 100 mL working volume and then dosed with various amounts of MPA (0 μM, 20 μM, 40 μM) or acMPAG (20 μM) in duplicates. After dosing, the shake flasks were cultured another 4 days at 31° C., 5% CO2 and 150 rpm with fed-batch process and then harvested. The supernatant was sent for PQ assay (N-glycan analysis) for afucosylation level.
as §1, with “BIIB603” for “FIG. 18. Impact of Mycophenolic acid (MPA) and Mycophenolic acid acyl glucuronide (acMPAG) on afucosylation in BIIB603”, “line was” for “line. The cells were”

DUXB11 cell lines [1] = type: cell-based, Chinese hamster; details: for Cell viability (%): Chinese hamster, 3 days
Description: FIG. 7A and FIG. 7B. Impact of Mycophenolic acid (MPA) on afucosylation in cell lines (FIG. 7A and FIG. 7B showing two different cell lines) derived from DUXB11. The cells were cultured in 3 L bioreactor respectively for 7 days following the platform process. On day 7, the cells were divided into several 1 L shake flasks with 200 mL working volume and then dosed with various amounts of MPA (0 μM, […], 10 μM, 30 μM). After dosing MPA, shake flask fed-batch is conducted until day-3 harvest. Filtered supernatant samples were analyzed for titer and N-glycan analysis for afucosylation level.
DUXB11 cell lines (cell line #1 and #2) were cultured in 3 L bioreactor respectively for 7 days following the platform process. On day 7, the cells were divided into several 1 L shake flasks with 200 mL working volume and then dosed with various amounts of MPA (0 μM, 1 μM, 10 μM, 30 μM). After dosing MPA, shake flask fed-batch is conducted until day-3 harvest. Filtered supernatant samples were analyzed for titer and N-glycan analysis for afucosylation level. […] However, the titer was decreased (side effect) (see Table 8 below and FIG. 7A and FIG. 7B). […] The impact on viability became much more significant in bioreactor process (see Example 9 below).

DUXB11 cell lines [2] = type: cell-based, Chinese hamster; details: for impact on afucosylation: 3 L bioreactor, harvest D13; for Afucosylation (%) / Titer: MPA supplementation Day 5, DUXB11
Description: FIG. 8. Impact of the timing of supplementation with Mycophenolic acid (MPA) on afucosylation of DUXB11 cell line in 3 L bioreactors (A, B, C, and D) with the same seed density following the platform process. When the viable cell density (VCD) reached its peak (Day 5 in the study), fixed 5 μM of MPA was added in bioreactor A. At the same time, MPA was added in bioreactor B based on the VCD value to make sure MPA per cell is the same as the platform process to eliminate the possible impact of different cell growth. The next day (one day past peak VCD day, D6 in this study), fixed 5 μM of MPA was added in bioreactor C and MPA was added in bioreactor D based on its D6 VCD value to make sure MPA per cell is the same as the platform process to eliminate the possible impact of different cell growth. All bioreactors were harvested on D13. The filtered supernatant samples were analyzed for titer and N-glycan analysis for afucosylation level.
DUXB11 cell lines were cultured in 3 L bioreactor respectively following the platform process. On day 6, various amounts of MPA were dosed (0 μM and 5 μM). After dosing MPA, bioreactors were kept running until they were harvested on day 13. Filtered supernatant samples were analyzed for titer and N-glycan analysis for afucosylation level.
The culture conditions are described in FIG. 8. […] In addition, afucosylation level was increased with peak VCD day MPA addition (fixed 5 μM MPA vs. VCD based MPA addition).
The effect of temperature shift and supplementation with MPA is provided in FIG. 12, FIG. 13, FIG. 14A, and FIG. 14B and Table 11 below.

DUXB11 cell line = test: DUXB11 3 L bioreactor with insulin additions and fixed MPA: afucosylation, glycosylation map, titer; type: cell-based, Chinese hamster; parameters: M3F / Afucosyl / G0 / G0F / MS / G1 + G1′ / G1F + G1F′ / M6 / G2 / G2F: unit not given here; details: for Afucosyl / G0 / G0F / G1 + G1′ / G1F + G1F′ / G2 / G2F / M3F / M6 / MS: with MPA, DUXB11; for Afucosylation (%) / Titer: fixed 5 μM MPA, DUXB11 3 L bioreactor
Description: FIG. 11. […] Fixed 5 μM of MPA was added on Day 9 in all bioreactors and harvested on the same day. Filtered supernatant samples were analyzed for titer and N-glycan analysis for afucosylation level.
The culture conditions are described in FIG. 11.

FcgRIII a = test: FcgRIIIa binding of product after insulin and MPA supplement on DUXB11
[3] = 1 μM MPA dosed day 7, DUXB11 shake flask, harvest 3 days after dosing
[4] = 10 μM MPA dosed day 7, DUXB11 shake flask, harvest 3 days after dosing
[5] = 30 μM MPA dosed day 7, DUXB11 shake flask, harvest 3 days after dosing
[6] = increasing MPA dosing concentration (1, 10, 30 μM), shake flask

COc1c(C)c2c(c(O)c1C/C=C(\C)CCC(=O)O[C@@H]1O[C@H](C(=O)O)[C@@H](O)[C@H](O)[C@H]1O)C(=O)OC2 [acMPAG, mycophenolic acid acyl glucuronide]
afucosylation level (BIIB603 cell line): increased the afucosylation level to similar extent

COc1c(C)c2c(c(O)c1C/C=C(\C)CCC(=O)O)C(=O)OC2 [MPA, mycophenolic acid]
afucosylation level (BIIB603 cell line): increase in the afucosylation level | impact on viability (DUXB11 cell lines [1]): not significant | Afucosylation (%) (DUXB11 cell lines [1]; [3]): 3.85% | Titer (DUXB11 cell lines [1]; [3]): 0.136 g/L | Afucosylation (%) (DUXB11 cell lines [1]; [4]): 4.9% | Titer (DUXB11 cell lines [1]; [4]): 0.106 g/L | Afucosylation (%) (DUXB11 cell lines [1]; [5]): 4.4% | Titer (DUXB11 cell lines [1]; [5]): 0.105 g/L | Cell viability (%) (DUXB11 cell lines [1]; 1 μM): 62% | Cell viability (%) (DUXB11 cell lines [1]; 10 μM): 61% | Cell viability (%) (DUXB11 cell lines [1]; 30 μM): 62% | Titer (DUXB11 cell lines [1]; [6]): decreased | afucosylation level (DUXB11 cell lines [1]; [6]): increase | impact on afucosylation (DUXB11 cell lines [2]; MPA added on a different day than peak VCD (one day past, D6)): non-significant impact | impact on afucosylation (DUXB11 cell lines [2]; MPA added on the day of peak VCD (Day 5), fixed 5 μM or VCD based): significant impact | Afucosylation (%) (DUXB11 cell lines [2]; temperature 35 to 30 °C): 11.9% | Titer (DUXB11 cell lines [2]; temperature 35 to 30 °C): 1.5 g/L | Afucosylation (%) (DUXB11 cell lines [2]; temperature 35 to 33 °C): 10.7% | Titer (DUXB11 cell lines [2]; temperature 35 to 33 °C): 1.8 g/L

insulin
Afucosyl (DUXB11 cell line; 2.5 mg/L ins in feed 1): 4.9 | G0 (DUXB11 cell line; 2.5 mg/L ins in feed 1): 3.9 | G0F (DUXB11 cell line; 2.5 mg/L ins in feed 1): 68.1 | G1 + G1′ (DUXB11 cell line; 2.5 mg/L ins in feed 1): 0.9 | G1F + G1F′ (DUXB11 cell line; 2.5 mg/L ins in feed 1): 20.2 | G2 (DUXB11 cell line; 2.5 mg/L ins in feed 1): 0.0 | G2F (DUXB11 cell line; 2.5 mg/L ins in feed 1): 1.8 | M3F (DUXB11 cell line; 2.5 mg/L ins in feed 1): 1.0 | M6 (DUXB11 cell line; 2.5 mg/L ins in feed 1): 0.90 | MS (DUXB11 cell line; 2.5 mg/L ins in feed 1): 2.2 | Afucosyl (DUXB11 cell line; 10 mg/L ins in feed 1): 6.2 | G0 (DUXB11 cell line; 10 mg/L ins in feed 1): 5.1 | G0F (DUXB11 cell line; 10 mg/L ins in feed 1): 64.9 | G1 + G1′ (DUXB11 cell line; 10 mg/L ins in feed 1): 1.1 | G1F + G1F′ (DUXB11 cell line; 10 mg/L ins in feed 1): 21.7 | G2 (DUXB11 cell line; 10 mg/L ins in feed 1): 0.0 | G2F (DUXB11 cell line; 10 mg/L ins in feed 1): 2.3 | M3F (DUXB11 cell line; 10 mg/L ins in feed 1): 0.9 | M6 (DUXB11 cell line; 10 mg/L ins in feed 1): 0.9 | MS (DUXB11 cell line; 10 mg/L ins in feed 1): 2.2 | G0 (DUXB11 cell line; 30 mg/L ins in feed 1): 6.7 | G0F (DUXB11 cell line; 30 mg/L ins in feed 1): 62.5 | G1 + G1′ (DUXB11 cell line; 30 mg/L ins in feed 1): 1.3 | G1F + G1F′ (DUXB11 cell line; 30 mg/L ins in feed 1): 21.1 | G2 (DUXB11 cell line; 30 mg/L ins in feed 1): 0.0 | G2F (DUXB11 cell line; 30 mg/L ins in feed 1): 2.3 | M3F (DUXB11 cell line; 30 mg/L ins in feed 1): 0.9 | M6 (DUXB11 cell line; 30 mg/L ins in feed 1): 1.1 | MS (DUXB11 cell line; 30 mg/L ins in feed 1): 2.4 | G0 (DUXB11 cell line; 60 mg/L ins in feed 1): 6.4 | G0F (DUXB11 cell line; 60 mg/L ins in feed 1): 61.4 | G1 + G1′ (DUXB11 cell line; 60 mg/L ins in feed 1): 1.4 | G1F + G1F′ (DUXB11 cell line; 60 mg/L ins in feed 1): 22.9 | G2 (DUXB11 cell line; 60 mg/L ins in feed 1): 0.0 | G2F (DUXB11 cell line; 60 mg/L ins in feed 1): 2.6 | M3F (DUXB11 cell line; 60 mg/L ins in feed 1): 0.8 | M6 (DUXB11 cell line; 60 mg/L ins in feed 1): 0.9 | MS (DUXB11 cell line; 60 mg/L ins in feed 1): 2.5 | afucosylation (DUXB11 cell line; increasing insulin concentration with same MPA supplementation, fed-batch culture): increased afucosylation | Afucosylation (%) (DUXB11 cell line; total insulin added 11 mg/L): 4.9% | Titer (DUXB11 cell line; total insulin added 11 mg/L): 2.3 g/L | Afucosylation (%) (DUXB11 cell line; total insulin added 13 mg/L): 6.2% | Titer (DUXB11 cell line; total insulin added 13 mg/L): 2.6 g/L | FcgRIII a binding (FcgRIII a; 2.5 mg/L ins in feed 1, with MPA): 60 | FcgRIII a binding (FcgRIII a; 10 mg/L ins in feed 1, with MPA): 71 | FcgRIII a binding (FcgRIII a; 30 mg/L ins in feed 1, with MPA): 100 | FcgRIII a binding (FcgRIII a; 60 mg/L ins in feed 1, with MPA): 100
